Measured values as given in patent US12623942B2, “Method for extracting salts and temperature- regenerated extracting composition” (ADIONICS, priority 2016, dated 2026).

Key:
[1] = Liquid-liquid extraction of mono-salt saline solution
Source text: The extracting composition is obtained by solubilizing an amount of CEM and ASM in the selected fluidizing agent, dichloromethane CH2Cl2, dichlorobenzene or dichlorotoluene or any other fluidizing agent able to well solubilize the mixture CEM/ASM in order to obtain the searched final concentrations after solubilizing CEMs and ASMs in a minimum of 3 milliliters of fluidizing agent. If the selected fluidizing agent is also an ASM compound, so the selected ASM volume is at least 3 milliliters. The given concentrations of ASM2 and ASM9 are related to the added fluidizing agent volume and the concentrations of CEM are related to the added fluidizing agent+ASM volume. The extracting organic composition is then lightly heated so as to promote the solubilization of the organic compounds by means of a heat gun (temperature around 50 to 60° C.) for a few seconds (10 to 30 seconds) until a clear solution is obtained. The composition is thus left for 24 hours at room temperature so as to make sure that the obtained formulation is stable.
These sealed formulations are then orbitally stirred at 500 revolutions/minute for two hours after adding an equivalent volume of water which was distilled twice so as to allow a water saturation of the whole formulation and a pH control at the inlet and at the outlet (pH close to 7, or at least maintained after contact with the saturation water).
3 mL of the prepared extracting organic composition are then taken from the lower phase of the decanted diphasic mixture and transferred to a vial containing 3 mL of the water containing the one or more considered chloride salts (NaCl or others), then the vial is sealed and orbitally stirred (at 500 revolutions per minute) for 2 hours at room temperature (RT), that is to say between 20 and 25° C.
A verification is made to make sure that droplets in the range of 1-2 mm are really present during these stirrings in order to be sure that an equilibrium in the distribution of the considered chloride salt (NaCl or other) is achieved between both liquid phases at the end of stirring. The aspect of the organic and aqueous phases is clear and colorless or slightly turbid.
Once the 2-hour stirring is carried out, the stirring is stopped and the whole is left for decantation for about 10 minutes, at least until both phases are completely separated, at the temperature of the assay. Then, the upper aqueous phase is taken then stirred and diluted in order to analyze its salinity by a ion chromatography (a Metrohm™ device including a cation analyzing column and an anion analyzing column suitable for the ions and for the concentration of the salts which are searched for). Likewise, the chloride salt (NaCl or other) initial aqueous solution is also analyzed by this ion chromatography to determine its cation and chloride molar relative concentration before the extraction. All the extractions and analyses were duplicated.
The considered extracting composition comprises 0.1 mol/L of CEM1 and 3.52 mol/L of ASM2 in dichloromethane CH2Cl2, which was obtained as described above. The initial concentration of the considered salt in water, whether it is LiCl, NaCl, KCl, MgCl2, CaCl2, SrCl2 or BaCl2, is 0.1 mol/L.
After carrying out these 7 specific extractions (duplicated) of salts, the amounts of extracted cations in relative molar percentage before and after extraction at room temperature and at water/extracting formulation iso-volume are indicated in table I: […]

[2] = Selective extraction from a binary mixture NaCl/CaCl2; settings: for % E Ca^++ / % E Na^+: RT, molar %
Source text: A brine containing an equimolar mixture of salts, 0.05 mol/L of NaCl and CaCl2 each, which was made as described above, was contacted with two extracting compositions, one of which according to the invention.
Each extracting composition comprises 0.1 mol/L of CEM
[drawing 53] and 2.4 mol/L of ASM9 in 1,2-dichlorobenzene.
A brine containing a mixture of NaCl and CaCl2 is made as described above to obtain the following initial saline concentrations in a mixture: 0.2 Mol/L of NaCl and 0.03 Mol/L of CaCl2. The extracting resin, is composed of 0.1 Mol/L of CEM2, 3.52 Mol/L of ASM2 and a complement of liquid ASM1, which is also used as a fluidizing agent.

[3] = Complexing constant Log K in methanol at 25° C.; assay type: binding
Protocol: K is the complexing constant of a CEM and a […] cation in methanol, at 25° C., which is measured according to the standard method of isothermal calorimetric titration.

[4] = Extraction isotherms of CaCl2 at room temperature and 80° C.; settings: 0.1M CEM2 + 1M ASM9 in 12ClPh, Org./Water = 1
Protocol: Concerning the extraction or back extraction assays at a higher temperature, in particular at 60° C. or at 80° C., a magnetic stirring (at 500 revolutions per minute), for 2 hours, is carried out with an indirect thermostatically-controlled heating in a metal mold on a hotplate.
This series of examples aims to establish two extraction isotherms of CaCl2 at 20° C. and at 80° C. for an extracting composition including 0.1 Mol/L of CEM2, combined with 1 Mol/L of ASM9; the whole dissolved in 1,2-dichlorobenzene.
After carrying out the 7 specific extractions (duplicated) of salts, the amounts of extracted cations in relative molar percentage before and after extraction at room temperature and at water/extracting formulation iso-volume are indicated in table IV: […]
The same series of extractions was then carried out at 80° C. to give table V as follows: […]

[5] = 0.1M CEM + 3.52M ASM2 in CH2Cl2, initial salt 0.1 mol/L, Org./Water = 1, molar %
[6] = 0.1 Mol/L CEM2 + 3.52 Mol/L ASM2 + complement of liquid ASM1, brine 0.2 Mol/L NaCl and 0.03 Mol/L CaCl2
[7] = 0.1 mol/L CEM + 2.4 mol/L ASM9 in 1,2-dichlorobenzene, brine 0.05 mol/L NaCl and CaCl2 each

In the case of `CCN(CC)C(=O)COc1c2cc(C(C)(C)C)cc1Cc1cc(C(C)(C)C)cc(c1OCC(=O)N(CC)CC)Cc1cc(C(C)(C)C)cc(c1OCC(=O)N(CC)CC)Cc1cc(C(C)(C)C)cc(c1OCC(=O)N(CC)CC)Cc1cc(C(C)(C)C)cc(c1OCC(=O)N(CC)CC)Cc1cc(C(C)(C)C)cc(c1OCC(=O)N(CC)CC)C2` [CEM2, 4-tert-butyl-Calix[6]arene hexakis(N,N-diethylacetamide)], the “Extraction rate at room temperature (RT), BaCl2” value [1, 5] is reported as 63.2%, the “Extraction rate at room temperature (RT), CaCl2” value (from here on “Extraction rate … (RT), CaCl2”) [1, 5] is reported as 57.8% and the “Extraction rate at room temperature (RT), KCl” value [1, 5] is reported as 25.4%. For the same compound, the “Extraction rate at room temperature (RT), LiCl” value [1, 5] was 21.9%, the “Extraction rate at room temperature (RT), MgCl2” value [1, 5] was 13.5% and the “Extraction rate at room temperature (RT), NaCl” value [1, 5] was 22.7%. For the same compound, the “Extraction rate at room temperature (RT), SrCl2” value [1, 5] was 63.8%, the “Calcium to sodium extraction rate” value ([1]; solutions containing only one of these salts (example 3)) was 2.54 and the “% E Ca^++” value [2, 6] was 88.0%. The “% E Na^+” value [2, 6] was 5.0%, the “% E Ca^++” value [2, 7] was 56.0% and the “% E Na^+” value [2, 7] was 4.0%. The “Ratio of the Ca/Na extraction rates” value ([2]; 0.2 Mol/L NaCl and 0.03 Mol/L CaCl2 (example 7)) was 17.6, the “Calcium to sodium extraction rate” value ([2]; mixture with an iso-concentration of cations (example 6)) was 14 times and the “Log K(Cs^+, MeOH, 25° C.)” value [3] was 2.8. The “Log K(K^+, MeOH, 25° C.)” value [3] was 3.3, the “Log K(Li^+, MeOH, 25° C.)” value [3] was 2.6 and the “Log K(Na^+, MeOH, 25° C.)” value [3] was 2.8. The “Log K(Rb^+, MeOH, 25° C.)” value [3] was 2.6, the “Extraction rate at 80° C., CaCl2” value ([4]; 0.01M) was 11% and the “Extraction rate at 80° C., CaCl2” value ([4]; 0.02M) was 16%. The “Extraction rate at 80° C., CaCl2” value ([4]; 0.03M) was 18%, the “Extraction rate at 80° C., CaCl2” value ([4]; 0.04M) was 17% and the “Extraction rate at 80° C., CaCl2” value ([4]; 0.1M) was 18%. For the same compound, the “Extraction rate at 80° C., CaCl2” value ([4]; 0.2M) was 16%, the “Extraction rate at 80° C., CaCl2” value ([4]; 0.4M) was 10% and the “Extraction rate … (RT), CaCl2” value ([4]; 0.01M) was 39%. The “Extraction rate … (RT), CaCl2” value ([4]; 0.02M) was 42%, the “Extraction rate … (RT), CaCl2” value ([4]; 0.03M) was 41% and the “Extraction rate … (RT), CaCl2” value ([4]; 0.04M) was 40%. For the same compound, the “Extraction rate … (RT), CaCl2” value ([4]; 0.1M) was 34%, the “Extraction rate … (RT), CaCl2” value ([4]; 0.2M) was 27% and the “Extraction rate … (RT), CaCl2” value ([4]; 0.4M) was 16%.
